Target: T1, sGC α1/β1 heterodimer (Homo sapiens, UniProt Q02108+Q02153)
T1 construct: expressed in transfected cells; host or cells: CHO-K1 (clone #7, CHO-K1/sGC)
T1 sequence (Q02108 1-690): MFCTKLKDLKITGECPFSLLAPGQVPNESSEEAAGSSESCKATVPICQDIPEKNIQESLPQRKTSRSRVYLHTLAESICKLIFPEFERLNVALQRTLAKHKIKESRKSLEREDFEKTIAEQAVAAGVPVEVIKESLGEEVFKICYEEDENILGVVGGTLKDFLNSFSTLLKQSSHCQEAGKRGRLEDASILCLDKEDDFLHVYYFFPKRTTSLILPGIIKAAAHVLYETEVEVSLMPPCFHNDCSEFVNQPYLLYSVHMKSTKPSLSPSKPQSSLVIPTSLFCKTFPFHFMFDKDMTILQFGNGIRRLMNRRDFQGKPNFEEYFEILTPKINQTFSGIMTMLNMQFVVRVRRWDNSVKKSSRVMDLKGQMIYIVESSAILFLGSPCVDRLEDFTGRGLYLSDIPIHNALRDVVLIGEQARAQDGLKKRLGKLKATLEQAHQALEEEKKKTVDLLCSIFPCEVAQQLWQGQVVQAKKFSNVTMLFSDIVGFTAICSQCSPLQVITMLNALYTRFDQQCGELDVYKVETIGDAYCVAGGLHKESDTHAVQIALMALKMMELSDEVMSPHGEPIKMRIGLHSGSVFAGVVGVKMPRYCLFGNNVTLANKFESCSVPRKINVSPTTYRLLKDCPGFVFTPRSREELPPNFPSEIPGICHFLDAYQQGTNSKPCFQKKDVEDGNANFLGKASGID
T1 sequence (Q02153 1-619): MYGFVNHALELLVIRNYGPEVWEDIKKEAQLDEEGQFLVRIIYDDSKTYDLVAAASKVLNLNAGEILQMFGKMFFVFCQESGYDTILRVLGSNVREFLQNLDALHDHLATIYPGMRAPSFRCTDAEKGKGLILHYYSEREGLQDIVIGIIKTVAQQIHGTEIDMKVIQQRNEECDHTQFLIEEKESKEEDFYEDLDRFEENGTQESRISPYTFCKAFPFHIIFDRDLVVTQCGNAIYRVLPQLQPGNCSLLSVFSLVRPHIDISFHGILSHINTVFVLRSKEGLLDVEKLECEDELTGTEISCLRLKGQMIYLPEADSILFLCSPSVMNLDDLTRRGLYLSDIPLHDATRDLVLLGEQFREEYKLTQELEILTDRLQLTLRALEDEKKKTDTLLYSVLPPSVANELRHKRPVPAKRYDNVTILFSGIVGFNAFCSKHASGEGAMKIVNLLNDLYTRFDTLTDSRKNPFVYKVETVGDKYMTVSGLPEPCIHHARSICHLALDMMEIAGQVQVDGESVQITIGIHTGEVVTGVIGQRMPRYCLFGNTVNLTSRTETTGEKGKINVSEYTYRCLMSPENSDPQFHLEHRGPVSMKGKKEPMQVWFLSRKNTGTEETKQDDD
Experiment: Cell-based sGC functional assay (CASA assay): cGMP generation in CHO-K1/sGC cells, HTRF detection
Settings: for Emax: CHO-K1, percent activation relative to standard Compound A in CHO-K1/sGC cells, read-out: % Act.; for EC50: inflection point (IP) of cGMP generation in CHO-K1/sGC cells, 4P fit, activity expressed as percentage of Compound A
Method in brief: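 Stable CHO-K1/sGC cells in EBSS buffer with 5 mM MgCl2, 0.05% BSA and 0.5 mM IBMX were incubated with compound (2.5% DMSO final) ±1 μM DETA-NO for 1 hr at 37° C. cGMP was measured by HTRF. Activation is expressed as % of reference HDA Compound A maximum, with IP and max fold induction from a 4P fit.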

Emax	EC50	SMILES
146%	614 nM	CC1(C)C(=O)Nc2nc(-c3cn4c(Cl)cnc4c(CCC(F)(F)C(F)(F)F)n3)nc(N)c21 [Example 257, 4-amino-2-(3-chloro-8-(3,3,4,4,4-pentafluorobutyl)imidazo [1,2-a]pyrazin-6-yl)-5,5-dimethyl-5H-pyrrolo[2,3-d]pyrimidin-6(7H)-one]
116%	89 nM	CC1(c2ccc(F)cc2)C(=O)Nc2nc(-c3cn4c(Cl)cnc4c(CCC(F)(F)F)n3)nc(N)c21 (stereo not shown) [Example 258A, 4-amino-2-(3-chloro-8-(3,3,3-trifluoropropyl)imidazo[1,2-a]pyrazin-6-yl)-5-(4-fluorophenyl)-5-methyl-5H-pyrrolo[2,3-d]pyrimidin-6(7H)-one]
99%	112 nM	CC1(c2ccccc2)C(=O)Nc2nc(-c3cn4c(Cl)cnc4c(CCC(F)(F)F)n3)nc(N)c21 (stereo not shown) [Example 259B, 4-amino-2-(3-chloro-8-(3,3,3-trifluoropropyl)imidazo[1,2-a]pyrazin-6-yl)-5-methyl-5-phenyl-5H-pyrrolo[2,3-d]pyrimidin-6(7H)-one]
105%	236 nM	CC1(c2ccc(F)cn2)C(=O)Nc2nc(-c3cn4c(Br)cnc4c(CCC(F)(F)C(F)(F)F)n3)nc(N)c21 (stereo not shown) [Example 262B, 4-Amino-2-(3-bromo-8-(3,3,4,4,4-pentafluorobutyl)imidazo[1,2-a]pyrazin-6-yl)-5-(5-fluoropyridin-2-yl)-5-methyl-5H-pyrrolo[2,3-d]pyrimidin-6(7H)-one]
20%	314 nM	CC1(C)C(=O)Nc2nc(-c3cn4c(Br)cnc4c(CCC(F)(F)C(F)(F)F)n3)nc(N)c21 [Example 263, 4-amino-2-(3-bromo-8-(3,3,4,4,4-pentafluorobutyl)imidazo[1,2-a]pyrazin-6-yl)-5,5-dimethyl-5H-pyrrolo[2,3-d]pyrimidin-6(7H)-one]
91%	212 nM	CC1(c2ccc(F)cc2)C(=O)Nc2nc(-c3cn4c(N)cnc4c(CCC(F)(F)C(F)(F)F)n3)nc(N)c21 (stereo not shown) [Example 267A, 4-Amino-2-(3-amino-8-(3,3,4,4,4-pentafluorobutyl)imidazo[1,2-a]pyrazin-6-yl)-5-(4-fluorophenyl)-5-methyl-5H-pyrrolo[2,3-d]pyrimidin-6(7H)-one]
79%	338 nM	CC1(c2ccc(F)cn2)C(=O)Nc2nc(-c3cn4c(N)cnc4c(CCC(F)(F)C(F)(F)F)n3)nc(N)c21 (stereo not shown) [Example 268B, 4-Amino-2-(3-amino-8-(3,3,4,4,4-pentafluorobutyl)imidazo[1,2-a]pyrazin-6-yl)-5-(5-fluoropyridin-2-yl)-5-methyl-5H-pyrrolo[2,3-d]pyrimidin-6(7H)-one]
198%	5090 nM	CC1(c2ccc(Cl)cn2)C(=O)Nc2nc(-c3cn4c(N)cnc4c(CCC(F)(F)C(F)(F)F)n3)nc(N)c21 (stereo not shown) [Example 269A, 4-amino-2-(3-amino-8-(3,3,4,4,4-pentafluorobutyl)imidazo[1,2-a]pyrazin-6-yl)-5-(5-chloropyridin-2-yl)-5-methyl-5H-pyrrolo[2,3-d]pyrimidin-6(7H)-one]
81%	61 nM	CC1(c2ccc(F)cc2)C(=O)Nc2nc(-c3cn4c(C#N)cnc4c(CCC(F)(F)C(F)(F)F)n3)nc(N)c21 (stereo not shown) [Example 273A, 6-(4-Amino-5-(4-fluorophenyl)-5-methyl-6-oxo-6,7-dihydro-5H-pyrrolo[2,3-d]pyrimidin-2-yl)-8-(3,3,4,4,4-pentafluorobutyl)imidazo[1,2-3a]pyrazine-3-carbonitrile]

The next lines start with the molecule.

SMILES	Emax	EC50
CC1(c2ccc(F)cc2)C(=O)Nc2nc(-c3cn4c(Cc5ccccc5)cnc4c(CCC(F)(F)C(F)(F)F)n3)nc(N)c21 (stereo not shown) [Example 260A, 4-Amino-2-(3-benzyl-8-(3,3,4,4,4-pentafluorobutyl)imidazo[1,2-a]pyrazin-6-yl)-5-(4-fluorophenyl)-5-methyl-5H-pyrrolo[2,3-d]pyrimidin-6(7H)-one]	90%	504 nM
CC1(c2ccc(F)cc2)C(=O)Nc2nc(-c3cn4c(CCC5CCCCC5)cnc4cn3)nc(N)c21 (stereo not shown) [Example 261A, 4-Amino-2-(3-(2-cyclohexylethyl)imidazo[1,2-a]pyrazin-6-yl)-5-(4-fluorophenyl)-5-methyl-5H-pyrrolo[2,3-d]pyrimidin-6(7H)-one]	116%	822 nM
CC1(c2ccccc2)C(=O)Nc2nc(-c3cn4c(Br)cnc4c(CCC(F)(F)F)n3)nc(N)c21 (stereo not shown) [Example 265B, 4-amino-2-(3-bromo-8-(3,3,3-trifluoropropyl)imidazo[1,2-a]pyrazin-6-yl)-5-methyl-5-phenyl-5H-pyrrolo[2,3-d]pyrimidin-6(7H)-one]	121%	648 nM
Cc1nc2c(CCC(F)(F)C(F)(F)F)nc(-c3nc(N)c4c(n3)NC(=O)C4(C)c3ccc(F)cc3)cn2c1Br (stereo not shown) [Example 266A, 4-amino-2-(3-bromo-2-methyl-8-(3,3,4,4,4-pentafluorobutyl)imidazo[1,2-a]pyrazin-6-yl)-5-(4-fluorophenyl)-5-methyl-5H-pyrrolo[2,3-d]pyrimidin-6(7H)-one]	101%	141 nM
CN(C)C(=O)c1cccc(C2(C)C(=O)Nc3nc(-c4cn5ccnc5c(CCC(F)(F)C(F)(F)F)n4)nc(N)c32)c1 (stereo not shown) [Example 271B, 3-(4-Amino-5-methyl-6-oxo-2-(8-(3,3,4,4,4-pentafluorobutyl)imidazo[1,2-a]pyrazin-6-yl)-6,7-dihydro-5H-pyrrolo[2,3-d]pyrimidin-5-yl)-N,N-dimethylbenzamide]	95%	622 nM
CC1(C)C(=O)Nc2nc(-c3cn4ccnc4c(Cc4cccc(C#N)c4)n3)nc(N)c21 [Example 272, 3-((6-(4-Amino-5,5-dimethyl-6-oxo-6,7-dihydro-5H-pyrrolo[2,3-d]pyrimidin-2-yl)imidazo[1,2-a]pyrazin-8-yl)methyl)benzonitrile]	114%	367 nM
Cc1nc2c(CCC(F)(F)C(F)(F)F)nc(-c3nc(N)c4c(n3)NC(=O)C4(C)c3ccc(F)cc3)cn2c1C#N (stereo not shown) [Example 274A, 6-(4-amino-5-(4-fluorophenyl)-5-methyl-6-oxo-6,7-dihydro-5H-pyrrolo[2,3-d]pyrimidin-2-yl)-2-methyl-8-(3,3,4,4,4-pentafluorobutyl)imidazo[1,2-a]pyrazine-3-carbonitrile]	100%	238 nM
CC1(c2ccc(F)cc2)C(=O)Nc2nc(-c3cn4cc(C#N)nc4c(CCC(F)(F)C(F)(F)F)n3)nc(N)c21 (stereo not shown) [Example 275A, 6-(4-Amino-5-(4-fluorophenyl)-5-methyl-6-oxo-6,7-dihydro-5H-pyrrolo[2,3-d]pyrimidin-2-yl)-8-(3,3,4,4,4-pentafluorobutyl)imidazo[1,2-a]pyrazine-2-carbonitrile]	98%	89 nM
CCC1(c2ccc(F)cc2)C(=O)Nc2nc(-c3cn4c(F)cnc4c(CCC(F)(F)C(F)(F)F)n3)nc(N)c21 (stereo not shown) [Example 276A, 4-Amino-5-ethyl-2-(3-fluoro-8-(3,3,4,4,4-pentafluorobutyl)imidazo[1,2-a]pyrazin-6-yl)-5-(4-fluorophenyl)-5H-pyrrolo[2,3-d]pyrimidin-6(7H)-one]	80%	22 nM
CC1(c2ccc(Cl)cc2)C(=O)Nc2nc(-c3cn4ccnc4cn3)nc(N3CCC(C(F)(F)F)CC3)c21 (stereo not shown) [Example 280A, 5-(4-chlorophenyl)-2-(imidazo[1,2-a]pyrazin-6-yl)-5-methyl-4-(4-(trifluromethyl)piperdin-1-yl)-5H-pyrrolo[2,3-d]pyrimidin-6(7H)-one]	102%	124 nM
CC1(c2ccc(Cl)cc2)C(=O)Nc2nc(-c3cn4ccnc4cn3)nc(N3CC(F)(C4CC4)C3)c21 (stereo not shown) [Example 281A, 5-(4-chlorophenyl)-4-(3-cyclopropyl-3-fluoroazetidin-1-yl)-2-(imidazo[1,2-a]pyrazin-6-yl)-5-methyl-5H-pyrrolo[2,3-d]pyrimidin-6(7H)-one]	120%	102 nM

Source: patent US9796733B2, “Imidazo-pyrazine derivatives useful as soluble guanylate cyclase activators” (Merck Sharp & Dohme Corp., priority 2014, dated 2017)
